Assay results taken from ChEMBL document CHEMBL4414593, “Prenylated Acetophloroglucinol Dimers from Acronychia trifoliolata: Structure Elucidation and Total Synthesis” (J Nat Prod, 2019).
pIC50: −log10 of the molar value.

Key:
A549 = test: Antiproliferative activity against human A549 cells assessed as reduction in cell viability after 72 hrs by SRB assay; assay type: functional, cell-based; details: A549, 72 h
MDA-MB-231 = test: Antiproliferative activity against triple-negative human MDA-MB-231 cells assessed as reduction in cell viability after 72 hrs by SRB assay; assay type: functional, cell-based; details: MDA-MB-231, 72 h
KB = test: Antiproliferative activity against human KB cells assessed as reduction in cell viability after 72 hrs by SRB assay; assay type: functional, cell-based
[1] = Antiproliferative activity against P-gp overexpressing human KBVIN cells assessed as reduction in cell viability after 72 hrs by SRB assay; assay type: functional

Compound | pIC50 (A549) | pIC50 (MDA-MB-231) | pIC50 (KB) | pIC50 [1]
COc1c(CC=C(C)C)c(O)c(Cc2c(O)c(CC=C(C)C)c(OC)c(C(C)=O)c2O)c(O)c1C(C)=O | 5.19 | 5.23 | 5.26 | 5.26
COc1c(CC=C(C)C)c(O)c(C(CC(C)C)c2c(O)c(CC=C(C)C)c(OC)c(C(C)=O)c2O)c(O)c1C(C)=O | < 5.00 | < 5.00 | 5.12 | 5.08
COc1c(CC=C(C)C)c(O)c(C(CC(C)C)c2c(O)cc(O)c(C(C)=O)c2O)c(O)c1C(C)=O (stereo not drawn) | 5.31 | 5.24 | 5.28 | 5.30
COc1c(CC=C(C)C)c(O)c(Cc2c(O)cc(O)c(C(C)=O)c2O)c(O)c1C(C)=O | 5.25 | 5.16 | 5.28 | 5.29
COc1c(CC=C(C)C)c(O)c(C(CC(C)C)c2c(O)c3c(c(C(C)=O)c2O)OC(C(C)(C)O)C3)c(O)c1C(C)=O (racemic) | < 5.00 | < 5.00 | < 5.00 | < 5.00
COc1c(CC=C(C)C)c(O)c(C(CC(C)C)c2c(O)c(C(C)=O)c(O)c3c2OC(C)(C)C(O)C3)c(O)c1C(C)=O (racemic) | < 5.00 | < 5.00 | < 5.00 | < 5.00
COc1c(CC=C(C)C)c(O)c(C(CC(C)C)c2c(O)c3c(c(C(C)=O)c2O)OC(C)(C)C(O)C3)c(O)c1C(C)=O (racemic) | < 5.00 | < 5.00 | < 5.00 | < 5.00
COc1c(CC=C(C)C)c(O)c(C(CC(C)C)c2c(O)c3c(c(C(C)=O)c2O)OC(C)(C)C=C3)c(O)c1C(C)=O (racemic) | 5.23 | 5.27 | 5.31 | 5.37
COc1c(CC=C(C)C)c(O)c(C(CC(C)C)c2c(O)c(C=O)c(O)c(C(C)=O)c2O)c(O)c1C(C)=O (racemic) | < 5.00 | < 5.00 | < 5.00 | < 5.00
COc1c(CC=C(C)C)c(O)c(C(CC(C)C)c2c(O)c(CC=C(C)C)c(O)c(C(C)=O)c2O)c(O)c1C(C)=O (racemic) | 5.21 | 5.19 | 5.31 | 5.36
C=C(C)C(O)Cc1c(O)c(C(C)=O)c(O)c(C(CC(C)C)c2c(O)c(CC=C(C)C)c(OC)c(C(C)=O)c2O)c1O (racemic) [ACROVESTENOL] | < 5.00 | 5.00 | 5.22 | 5.19
CC(=O)O[C@H]1C(=O)[C@@]2(C)[C@H]([C@H](OC(=O)c3ccccc3)[C@]3(O)C[C@H](OC(=O)[C@H](O)[C@@H](NC(=O)c4ccccc4)c4ccccc4)C(C)=C1C3(C)C)[C@]1(OC(C)=O)CO[C@@H]1C[C@@H]2O [PACLITAXEL] | 8.20 | 7.97 | 8.13 | 5.34
